Data taken from patent publication US20250338842A1, “NOVEL MIXTURES FOR CROP PROTECTION” (Adama Agan LTD., priority 2023, published 2025).

Experiments:
Assay type in all cases: in vivo
[1] = test system: AMARE (Amaranthus retroflexus); experiment: Pot trial Flufenacet+Dimethenamid-p+Mesotrione, post-emergence; conditions: post-emergence (2-3 leaves), g a.i./ha: Flufenacet 75, MST 60, DMTP 302
Text: (§1) A synergistic effect exists whenever the action of an active ingredient combination is greater than the sum of the actions of the individual components. In the field of agriculture, it is often understood that the term “synergy” is as defined by Colby S. R. in an article entitled “Calculation of the synergistic and antagonistic responses of herbicide combinations” published in the journal Weeds, 1967, 15, p. 20-22. The action expected for a given combination of two active components can be calculated according to Colby as follows: […]
(§2) in which E represents the expected effect, e.g. percentage of pest control, for the combination of the active ingredients at defined doses (for example equal to x and y respectively), A is the effect, e.g. percentage of pest control, observed for the first compound or mixture of compounds at a defined dose (equal to x), B is the effect, e.g. percentage of pest control, observed for the second compound or group of compounds at a defined dose (equal to y).
(§3) Here, efficacy or percent inhibition is determined in %. 0% means efficacy that corresponds to the Control, i.e., as if no treatment had been applied. A percent inhibition of 100% means that complete control is observed. When the percent control observed for the combination (E0) is greater than E, there is a synergistic effect. […]

[2] = test system: ECHCG (Echinochloa crus-galli); experiment: as above; conditions: post-emergence (2-3 leaves), g a.i./ha: Flufenacet 75, MST 60, DMTP 302
Text: as §1, §2, §3

[3] = test system: CHEAL (Chenopodium album); experiment: Pot trial Flufenacet+Dimethenamid-p+Thiencarbazone, third trial, post-emergence; conditions: post-emergence (2-3 leaves), g a.i./ha: Flufenacet 75, TCM 18, DMTP 302
Text: as §1, §2, §3

[4] = test system: AMARE (Amaranthus retroflexus); experiment: as above; conditions: post-emergence (2-3 leaves), g a.i./ha: Flufenacet 75, TCM 18, DMTP 302
Text: as §1, §2, §3

[5] = test system: SETVE (Setaria verticillate); experiment: Pot trial Flufenacet+Dimethenamid-p+Thiencarbazone, first trial, pre-emergence; conditions: g a.i./ha: Flufenacet 12.2 (12.5 in mix), TCM 3, DMTP 50
Text: as §1, §2, §3

[6] = test system: ECHCG (Echinochloa crus-galli); experiment: as above; conditions: g a.i./ha: Flufenacet 12.2 (12.5 in mix), TCM 3, DMTP 50
Text: as §1, §2, §3

[7] = test system: ECHCG (Echinochloa crus-galli); experiment: Pot trial Flufenacet+Dimethenamid-p+Thiencarbazone, second trial, post-emergence; conditions: post-emergence (2-3 leaves), g a.i./ha: Flufenacet 12.2 (12.5 in mix), TCM 3, DMTP 50
Text: as §1, §2, §3

[8] = test system: AMAPA (Amaranthus palmeri); experiment: Pot trial Dimethenamid-P+Pethoxamid+Mesotrione, first and second trial, post-emergence
Text: as §1, §2, §3

SETVI (Setaria viridis) [9] = experiment: Pot trial Dimethenamid-P+Tembotrione+Pethoxamid (Example 7), post-emergence
Text: as §1, §2, §3

SOLNI (Solanum nigrum) [10] = experiment: Pot trial Dimethenamid-P+Thiencarbazone+Pethoxamid, post-emergence
Text: as §1, §2
(§4) Here, efficacy or percent inhibition is determined in %. 0% means efficacy that corresponds to the Control, i.e., as if no treatment had been applied. A percent inhibition of 100% means that complete control is observed. When the percent control observed for the combination (E0) is greater than E, there is a synergistic effect. When the percent control observed for the combination (E0) is equal to E, there is an additive effect and wherein the percent control observed for the combination (E0) is lower than E, there is an antagonistic effect.
(§5) First trial: Tank mixes were prepared by combining the formulation with water in order to achieve the desired concentration of each active ingredient, as outlined in Table 19. For this study, individual pots were utilized for sowing the weeds, with each pot containing one weed species, in this case SOLNI (Solanum nigrum) or SETVI (Setaria viridis). Treatments were then applied to each pot at the post-emergence stage of the weeds, ensuring consistent application timing across all treatments. Subsequently, a comprehensive assessment was conducted seven days after application (7DAA) to evaluate the efficacy of each treatment on SOLNI or SETVI.
as §5, with “Second” for “First”, “21.” for “19.”, “Subsequently, a comprehensive assessment was conducted seven days after application (7DAA) to evaluate the efficacy of each treatment on SOLNI or SETVI.” left out

SETVI (Setaria viridis) [11] = experiment: as above
Text: as §1, §2, §4, §5
as §5, with “Second” for “First”, “21.” for “19.”, “Subsequently, a comprehensive assessment was conducted seven days after application (7DAA) to evaluate the efficacy of each treatment on SOLNI or SETVI.” left out

[12] = test system: AMAPA (Amaranthus palmeri); experiment: Pot trial Dimethenamid-P+Pethoxamid+Mesotrione, third trial, pre-emergence; conditions: g a.i./ha: Petoxamid 360, MST 40, DMTP 200
Text: as §1, §2, §3

SOLNI (Solanum nigrum) [13] = experiment: Pot trial Dimethenamid-P+Tembotrione+Pethoxamid (Example 6), post-emergence
Text: as §1, §2, §3

[14] = test system: AMAPA (Amaranthus palmeri); experiment: Pot trial Dimethenamid-P+S-Metolachlor+Mesotrione, post-emergence
Text: as §1, §2, §3

[15] = second trial, g a.i./ha: PTX 720, TMB 63, DMTP 604.8
[16] = first trial, g a.i./ha: PTX 360, TCM/DMTP 159 (one cell)
[17] = second trial, g a.i./ha: PTX 720, TCM/DMTP 318 (one cell)

Which results are given for `CC(C)N(C(=O)COc1nnc(C(F)(F)F)s1)c1ccc(F)cc1` [Flufenacet]?
efficacy 8DAA AMARE % [1]: 0%; efficacy 8DAA ECHCG % [2]: 0%; efficacy 8DAA CHEAL % [3]: 0%; efficacy 8DAA AMARE % [4]: 0%; efficacy 8DAA SETVE % [5]: 0%; efficacy 8DAA ECHCG % [6]: 0%; efficacy 8DAA ECHCG % [7]: 0%

How did the “efficacy 21DAA AMAPA %” value ([8]; first trial, g a.i./ha: Petoxamid 720, MST 60, DMTP 300) turn out when `CCOCCN(C(=O)CCl)C(=C(C)C)c1ccccc1` [Pethoxamid] was run?
Its value is 6.25%.

And the “efficacy 21DAA AMAPA %” value ([8]; second trial, g a.i./ha: Petoxamid 120, MST 20, DMTP 100)?
The value was 0%.

What about the “efficacy 7DAA SETVI %” value (SETVI (Setaria viridis) [9]; first trial, g a.i./ha: PTX 360, TMB 10.5, DMTP 100.8) of the same molecule?
The value was 2.50%.

What about the “efficacy 7DAA SETVI %” value (SETVI (Setaria viridis) [9]; [15]) of the same molecule?
Its value is 0.00%.

And the “efficacy 7DAA SOLNI %” value (SOLNI (Solanum nigrum) [10]; [16])?
The value was 0.00%.

And the “efficacy 7DAA SOLNI %” value (SOLNI (Solanum nigrum) [10]; [17])?
The value was 1.70%.

What about the “efficacy 7DAA SETVI %” value (SETVI (Setaria viridis) [11]; [16]) of the same molecule?
The value was 2.50%.

What about the “efficacy 7DAA SETVI %” value (SETVI (Setaria viridis) [11]; [17]) of the same molecule?
Its value is 0.00%.

What about the “efficacy 21DAA AMAPA %” value [12] of the same molecule?
Its value is 52.50%.

What about the “efficacy 7DAA SOLNI %” value (SOLNI (Solanum nigrum) [13]; first trial, g a.i./ha: PTX 120, TMB 10.5, DMTP 100) of the same molecule?
Its value is 0.00%.

What about the “efficacy 7DAA SOLNI %” value (SOLNI (Solanum nigrum) [13]; [15]) of the same molecule?
Its value is 1.70%.

How did the “efficacy 18DAA AMAPA %” value ([14]; first trial, g a.i./ha: S-MOc 144, MST 20, DMTP 100) turn out when `CCc1cccc(C)c1N(C(=O)CCl)[C@@H](C)COC` [S-metolachlor] was run?
The value was 0.00%.

What about the “efficacy 18DAA AMAPA %” value ([14]; second trial, g a.i./ha: S-MOc 288, MST 40, DMTP 200) of the same molecule?
Its value is 0.00%.
